Values after ≈ are worked out from the molar mass of the structure shown.
Test system: E. Coli 31
Assay: in vitro antimicrobial activity, two-fold agar-plate dilution method
Type: cell-based
Settings: Escherichia coli; test strain E. Coli 31; 10^6 viable cells per ml; HI-agar; 37° C., 20 hours; read-out: MIC (minimal inhibitory concentration)
Experimental: in vitro Antimicrobial Activity was determined by the two-fold agar-plate dilution method as described blow.
One loopful of an overnight culture of a test strain in Trypticase-soy broth (10^6 viable cells per ml) was streaked on heart infusion agar (HI-agar) containing graded concentrations of the test compound, and the minimal inhibitory concentration (MIC) was expressed in terms of μg/ml after incubation at 37° C. for 20 hours.

MIC: 0.05 µg/mL (≈ 0.127 µM)
SMILES: C[C@@H](O)[C@H]1C(=O)N2C(C(=O)O)=C(S[C@@H]3CN[C@H](Cn4ccnc4)C3)[C@H](C)[C@H]12 [Example 2, (4R,5S,6S)-6-((IR)-1-hydroxyethyl) -3-((2S,4S)-2-(imidazol-1-yl)-methylpyrrolidin-4-yl) thio-4-methyl-7-oxo-1-azabicyclo(3.2.0) -hept-2-ene-2-carboxylic acid]
